Entries after “also recorded” stand apart in the source; their conditions may differ.
Assays:
[1] = tested on: TEAD/YAP dependent transcription; assay: TEAD4 luciferase reporter assay; type: cell-based, human
Protocol: Cells were plated at 2×10^4 cells/well in 24 well plates, unless otherwise stated, 48 hours before collection and treated or genetically manipulated as described. Firefly and renilla luciferase activities were assayed with the dual luciferase assay system (Promega, Madison Wis., USA), as directed, and firefly luciferase activity was normalized to renilla luciferase activity. Firefly and renilla luminescence were measured with the TD-20e Luminometer (Turner).

[2] = tested on: TEAD endogenous target gene expression; assay: Quantitative real-time PCR of TEAD endogenous target genes; type: cell-based, human; conditions: p53 DNA-contact mutant tumor lines
Protocol: Total RNA was extracted from cells using QIAshredder (Qiagen, Valencia, Calif., USA) and RNeasy Mini kit (Qiagen) following the manufacturer's instructions. First-strand cDNA synthesis was performed using Superscript II reverse transcriptase (Invitrogen, Carlsbad, Calif., USA) according to the manufacturer's instructions. Quantitative PCR was carried out using the ViiA™ 7 Real-Time PCR System (Life Technologies) using the FastStart SYBR Green Master mix (Roche, 04673492001). Primers were as follows: PCR was performed in 384 well plates using 10 μl volumes under the following conditions: 95° C. for 15 min, followed by 40 cycles of 94° C. for 15 sec, 61° C. for 30 sec, and 72° C. for 30 sec. Specificity was verified by a dissociation curve. Results were analyzed with ViiA7 RUO software (Life Technologies).

[3] = tested on: tumor lines with p53 DNA-contact mutations; assay: Clonogenic cell proliferation assay, p53 DNA-contact mutant tumor lines; type: cell-based, human
Protocol: (§1) For clonogenic assay, cells were plated in triplicate at 1×10^3 cells in 6-well plates. Cells were treated or genetically manipulated as described. After 10 to 14 days, colonies were stained with 1% crystal violet in ethanol and photographed.

[4] = tested on: tumor lines expressing p53 conformational mutations; assay: Clonogenic cell proliferation assay, p53 conformational mutant tumor lines; type: cell-based, human; conditions: for inhibition of proliferation: single agent, concentration not given
Protocol: as §1

non-tumorigenic cells = assay: Proliferation of non-tumorigenic cells; type: cell-based; conditions: FIG. 7
Protocol: as §1

MCF10A cells = assay: Anchorage-independent growth assay in soft agar; type: cell-based; conditions: FIG. 4C
Protocol: Growth in soft agar was determined by seeding 2.5×10^3 MCF10A cells in 1 ml of growth media containing 0.3% agar (BD 214050) on top of 1 ml of 0.48% agar in 35-mm dishes. Cells were fed every 4 days for 3 weeks with 0.2 mL of growth medium. Colonies were stained with 1% crystal violet in ethanol and photographed. Colony density was measured using Image J. Assays were conducted in triplicate.

ROCK1 = ROCK1 (Homo sapiens, UniProt Q13464); conditions: read-out: reported ICD50 for inhibition of ROCK1; cited from earlier work
Chain of ROCK1 (Q13464 whole entry): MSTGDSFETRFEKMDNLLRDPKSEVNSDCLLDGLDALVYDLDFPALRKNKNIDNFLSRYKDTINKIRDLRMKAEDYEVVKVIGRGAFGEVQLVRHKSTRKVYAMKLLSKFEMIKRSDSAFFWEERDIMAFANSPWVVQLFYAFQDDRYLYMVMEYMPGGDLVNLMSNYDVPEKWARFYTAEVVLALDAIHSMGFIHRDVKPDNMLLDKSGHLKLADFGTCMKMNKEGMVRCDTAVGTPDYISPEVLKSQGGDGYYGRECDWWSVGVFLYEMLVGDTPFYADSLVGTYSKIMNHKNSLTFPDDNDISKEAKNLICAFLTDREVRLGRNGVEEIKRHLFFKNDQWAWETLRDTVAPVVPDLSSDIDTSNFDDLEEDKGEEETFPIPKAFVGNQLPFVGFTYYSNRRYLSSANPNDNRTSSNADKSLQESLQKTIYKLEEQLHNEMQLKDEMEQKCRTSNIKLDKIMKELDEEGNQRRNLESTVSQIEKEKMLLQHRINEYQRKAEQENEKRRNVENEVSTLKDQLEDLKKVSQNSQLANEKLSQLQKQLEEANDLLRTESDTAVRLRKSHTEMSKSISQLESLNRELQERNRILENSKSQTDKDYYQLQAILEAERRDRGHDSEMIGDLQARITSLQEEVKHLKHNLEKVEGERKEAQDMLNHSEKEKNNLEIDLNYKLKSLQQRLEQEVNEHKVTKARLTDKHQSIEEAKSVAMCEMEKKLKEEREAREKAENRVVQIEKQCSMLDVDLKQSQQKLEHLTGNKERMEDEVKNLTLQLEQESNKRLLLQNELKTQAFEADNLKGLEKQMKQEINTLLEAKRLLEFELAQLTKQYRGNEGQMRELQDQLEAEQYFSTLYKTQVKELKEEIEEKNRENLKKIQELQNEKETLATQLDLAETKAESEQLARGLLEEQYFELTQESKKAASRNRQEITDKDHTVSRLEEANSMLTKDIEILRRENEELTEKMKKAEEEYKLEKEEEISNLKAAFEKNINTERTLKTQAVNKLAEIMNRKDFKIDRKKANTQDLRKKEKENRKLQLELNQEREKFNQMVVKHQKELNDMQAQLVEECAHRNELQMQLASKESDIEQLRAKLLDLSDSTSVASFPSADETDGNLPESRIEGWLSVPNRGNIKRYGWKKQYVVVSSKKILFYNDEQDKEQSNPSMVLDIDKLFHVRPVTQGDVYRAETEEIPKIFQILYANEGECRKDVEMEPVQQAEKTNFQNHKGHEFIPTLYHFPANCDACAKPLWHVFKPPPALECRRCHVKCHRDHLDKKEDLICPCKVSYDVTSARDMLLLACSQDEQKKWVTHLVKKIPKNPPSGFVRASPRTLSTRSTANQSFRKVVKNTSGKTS

ROCK2 = ROCK2 (Homo sapiens, UniProt O75116); conditions: read-out: reported ICD50 for inhibition of ROCK2; cited from earlier work
Chain of ROCK2 (O75116 whole entry): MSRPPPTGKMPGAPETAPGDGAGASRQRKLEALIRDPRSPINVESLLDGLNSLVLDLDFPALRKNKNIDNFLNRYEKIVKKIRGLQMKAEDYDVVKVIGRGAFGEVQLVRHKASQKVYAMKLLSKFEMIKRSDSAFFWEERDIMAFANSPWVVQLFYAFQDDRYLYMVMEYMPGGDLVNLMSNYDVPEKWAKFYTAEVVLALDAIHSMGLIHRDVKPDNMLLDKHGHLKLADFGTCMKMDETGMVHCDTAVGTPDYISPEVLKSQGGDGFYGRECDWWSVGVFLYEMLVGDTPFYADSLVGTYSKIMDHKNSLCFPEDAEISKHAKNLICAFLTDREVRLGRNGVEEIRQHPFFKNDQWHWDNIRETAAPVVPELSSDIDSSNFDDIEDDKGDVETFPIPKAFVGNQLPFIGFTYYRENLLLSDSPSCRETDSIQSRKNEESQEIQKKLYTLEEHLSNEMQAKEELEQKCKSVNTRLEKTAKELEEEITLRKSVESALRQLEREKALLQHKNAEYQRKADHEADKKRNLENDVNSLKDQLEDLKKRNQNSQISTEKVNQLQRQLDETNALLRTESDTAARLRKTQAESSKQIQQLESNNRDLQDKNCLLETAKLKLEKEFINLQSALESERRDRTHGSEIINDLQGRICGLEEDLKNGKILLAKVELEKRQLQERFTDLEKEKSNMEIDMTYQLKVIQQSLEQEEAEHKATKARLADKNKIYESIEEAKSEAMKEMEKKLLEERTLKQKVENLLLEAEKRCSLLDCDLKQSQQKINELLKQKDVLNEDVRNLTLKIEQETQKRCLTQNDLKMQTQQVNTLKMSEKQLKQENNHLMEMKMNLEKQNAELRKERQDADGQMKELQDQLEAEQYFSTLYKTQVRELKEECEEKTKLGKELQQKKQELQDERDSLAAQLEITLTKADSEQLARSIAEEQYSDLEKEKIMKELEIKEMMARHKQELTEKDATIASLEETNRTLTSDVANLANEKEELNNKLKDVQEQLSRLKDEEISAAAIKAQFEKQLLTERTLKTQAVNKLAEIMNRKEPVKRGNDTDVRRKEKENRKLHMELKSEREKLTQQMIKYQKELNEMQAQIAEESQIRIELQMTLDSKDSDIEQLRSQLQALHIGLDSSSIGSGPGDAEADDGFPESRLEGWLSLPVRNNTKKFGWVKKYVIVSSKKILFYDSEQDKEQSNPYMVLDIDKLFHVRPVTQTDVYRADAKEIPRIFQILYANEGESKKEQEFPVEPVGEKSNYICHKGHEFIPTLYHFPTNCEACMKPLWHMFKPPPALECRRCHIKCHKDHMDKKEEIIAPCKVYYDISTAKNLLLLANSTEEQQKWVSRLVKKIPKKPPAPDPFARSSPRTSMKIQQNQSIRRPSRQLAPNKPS

MDA-MB-231 = assay: Clonogenic cell proliferation assay, MDA-MB-231; type: cell-based, human; conditions: 10 μM; MDA-MB-231, p53 DNA-contact mutation
Protocol: as §1

SK-BR-3 = assay: Clonogenic cell proliferation assay, SK-BR-3; type: cell-based, human; conditions: 10 μM; SK-BR-3, p53 conformational mutation
Protocol: as §1

SK-LMS-1 = assay: Clonogenic cell proliferation assay, SK-LMS-1; type: cell-based, human; conditions: SK-LMS-1, p53 conformational mutation; concentration not given
Protocol: as §1

MDA-MB-468 = assay: Clonogenic cell proliferation assay, MDA-MB-468; type: cell-based, human; conditions: MDA-MB-468, p53-DNA contact tumor line
Protocol: as §1

HCC-193 = assay: Clonogenic cell proliferation assay, HCC-193; type: cell-based, human; conditions: HCC-193, p53-DNA contact tumor line
Protocol: as §1

HCC-1395 = assay: Clonogenic cell proliferation assay, HCC-1395; type: cell-based, human; conditions: HCC-1395, p53 conformational mutant line
Protocol: as §1

[5] = tested on: tumor lines harboring mutations in Hippo pathway core components; assay: Proliferation of tumor lines with Hippo pathway core component lesions; type: cell-based; conditions: tumor cells with lesions in Hippo pathway core components
Protocol: as §1

[6] = single agent, concentration not given

Question: With `C[C@@H](N)[C@H]1CC[C@H](C(=O)Nc2ccncc2)CC1` [Y-27632] as the molecule, how does the “effect on TEAD reporter” value ([1]; p53 DNA-contact mutant tumor lines, FIG. 4A) read?
Answer: Its value is “antagonized”.

Question: What about the “effect on TEAD endogenous target gene expression” value [2] of the same molecule?
Answer: The value was “antagonized”.

Question: And the “inhibition of colony formation / proliferation” value ([3]; 10-50 uM, 3 different p53 contact mutant tumor cells, FIG. 5B)?
Answer: The value was “almost complete inhibition of colony formation; also recorded: specific inhibition of proliferation”.

Question: And the inhibition of proliferation [3, 6]?
Answer: The inhibition of proliferation was “specifically inhibiting the proliferation; also recorded: specifically inhibit the proliferation; also recorded: antagonize the proliferation; also recorded: specifically inhibited proliferation”.

Question: What about the “inhibition of colony formation” value ([4]; even at 100 μM, FIG. 5B) of the same molecule?
Answer: The value was “no detectable inhibition of colony formation”.

Question: What about the inhibition of proliferation [4] of the same molecule?
Answer: The inhibition of proliferation was “neither XAV939 nor Y-27632 inhibits proliferation”.

Question: What about the “growth inhibitory effects on any of the other tumor cells analyzed” value ([4]; tumor cells without p53 DNA contact mutation, FIG. 4B) of the same molecule?
Answer: Its value is “without any obvious growth inhibitory effects”.

Question: What about the inhibition of proliferation (non-tumorigenic cells) of the same molecule?
Answer: The inhibition of proliferation was “neither XAV939 nor Y-27632 inhibits proliferation”.

Question: And the “effect on transforming ability (colony formation in soft agar)” value (“effect on transforming ability” below) (MCF10A cells; MCF10a cells overexpressing YAP)?
Answer: The value was “specifically and markedly impaired the transforming ability”.

Question: What about the “effect on transforming ability” value (MCF10A cells; MCF10a cells overexpressing mutant HRAS) of the same molecule?
Answer: Its value is “lack of effects”.

Question: What about the “effect on transforming ability” value (MCF10A cells; MCF10a cells overexpressing p53 R175H (conformational)) of the same molecule?
Answer: The value was “lack of effects”.

Question: What about the “effect on transforming ability” value (MCF10A cells; MCF10a cells overexpressing p53 R273H (DNA contact)) of the same molecule?
Answer: Its value is “specifically and markedly impaired the transforming ability”.

Question: For Verteporfin, which inhibition of proliferation [3, 6] is on record?
Answer: Its inhibition of proliferation is “inhibit proliferation”.

Question: What about the inhibition of proliferation [4] of the same molecule?
Answer: The inhibition of proliferation was “inhibited the proliferation; also recorded: inhibiting proliferation”.

Question: Which results are given for `Cc1cncc2cccc(S(=O)(=O)N3CCCN(C(=O)CN)C[C@@H]3C)c12` [Glycyl-H-1152]?
Answer: inhibition of TEAD/YAP dependent transcription ([1]; 1 μM, MDA-MB-231, FIG. 5A): marked inhibition; inhibition of proliferation ([3]; 1 μM): strikingly and specifically inhibited proliferation; concentration for specific inhibition of proliferation, lower than Y-27632 ([3]; relative to Y-27632): 10 fold; IC50 (ROCK1): 6 nM; IC50 (ROCK2): 11.8 nM

Question: Which results are given for `O=S(=O)(c1cccc2cnccc12)N1CCCNCC1` [Fasudil]?
Answer: inhibition of TEAD/YAP dependent transcription (TEAD reporter activity) ([1]; 10 μM, MDA-MB-231, FIG. 5A): little if any detectable inhibition; also recorded: lack of effect; effect on proliferation (MDA-MB-231): no effect; effect on proliferation (SK-BR-3): no effect

Question: What does the source list for `Oc1nc(-c2ccc(C(F)(F)F)cc2)nc2c1CSCC2` [XAV939]?
Answer: inhibition of proliferation [3, 6]: antagonize the proliferation; inhibition of proliferation [4]: neither XAV939 nor Y-27632 inhibits proliferation; inhibition of proliferation (SK-LMS-1): had no effect on the proliferation; inhibition of proliferation (MDA-MB-468): able to inhibit the proliferation; inhibition of proliferation (HCC-193): able to inhibit the proliferation; inhibition of proliferation (HCC-1395): had no effect on the proliferation; effect on growth / proliferation [5]: inhibits proliferation; inhibition of proliferation (non-tumorigenic cells): neither XAV939 nor Y-27632 inhibits proliferation

From US11273151B2, “Methods of treating tumors and cancer, and identifying candidate subjects for such treatment” (ICAHN SCHOOL OF MEDICINE AT MOUNT SINAI, priority 2015, dated 2022)
